Columns and labels:
Format in all cases: in vivo
[1] = test system: Winter Wheat cv Limerick; test: Winter wheat pot trial under glasshouse conditions: grain yield and thousand grain weight; conditions: for Grain Yield (%) T1 Timing / Grain Yield (%) T2 Timing: relative to untreated; for Grain Yield (g per Pot) T1 Timing: sprayed at T1 (Growth Stage 52: one quarter ear emergence); for Grain Yield (g per Pot) T2 Timing: sprayed at T2 (Growth Stage 65-69: at time of anthesis)
Method: (§1) The applied concentration of the composition of the present invention can vary widely depending on the water volume applied to plants as well as other factors such as plant age and size, and plant sensitivity to the final seed yield and crop quality improver. […] The rate of other components such as spreaders and stickers can be 50-200 ml per ha. The rate of cytokinin can typically be 0.001 to 1.0 percent of the formulation. […] ADD=at least one from class (f) each at <3 g/l, plus at least one from class (c). Winter Barley: […] Harvested: 28 July. […] Harvested: 28 July. Navy Bean: […] Harvested: 28 August. […] Harvested: 28 August. Statistical Layout: Randomised Complete Block trial, under glasshouse conditions, United Kingdom.

[2] = test system: Winter Barley cv Carat; test: Winter barley pot trial under glasshouse conditions: grain yield and thousand grain weight; conditions: for Grain Yield (%) T1 Timing / Grain Yield (%) T2 Timing: untreated = 100; for Grain Yield (g per Pot) T1 Timing: sprayed at T1 (Growth Stage 52: one quarter ear emergence); for Grain Yield (g per Pot) T2 Timing: sprayed at T2 (Growth Stage 65-69: at time of anthesis)
Method: as §1

[3] = test system: Glycine max (SOYBEAN); test: Soybean pot trial under glasshouse conditions: seed yield and thousand seed weight; conditions: for Seed Yield (%) T1 Timing / Seed Yield (%) T2 Timing: relative to untreated; for Seed Yield (g per Pot) T1 Timing: sprayed at T1 (Growth Stage R1: first flowering); for Seed Yield (g per Pot) T2 Timing: sprayed at T2 (Growth Stage R3)
Method: as §1

[4] = test system: Phaseolus vulgaris (NAVY BEAN) cv Primel; test: Navy bean pot trial under glasshouse conditions: seed yield and seed weight; conditions: for Seed Yield (%) T1 Timing / Seed Yield (%) T2 Timing: relative to untreated; for Seed Yield (g per Pot) T1 Timing: sprayed at T1 (Growth Stage R1: first flowering); for Seed Yield (g per Pot) T2 Timing: sprayed at T2 (Growth Stage R3)
Method: as §1

[5] = test system: Winter Barley (Mean of 3 Varieties); test: Grain quality improvement pot trial, winter barley
Source text: (§2) Thousand grain weight, specific weight and % screenings are different aspects of crop quality. For example, specific weight (bushel weight) is the weight of a given volume of grain, expressed in kg/hl. For example, growers have to meet standards of 76 for wheat and 64 for barley in order to meet minimum quality requirements. Varieties with the highest values are those most likely to produce acceptable grain lots. Aspects of crop quality for different varieties of crops are found in The Pocket Guide to Varieties of Cereals, Oilseeds and Pulses (NIAB Association). Other quality standards include, but are not limited to, endosperm texture, protein content (%), Hagberg falling number, Zeleny volume (cc), Chopin Alveograph, malt extract, IBD approval—brewing, IBD approval—distilling, IBD approval—grain distilling, sieving %<2.25 mm, sieving %<2.5 mm, nitrogen content, kernel content, sieving %<2.0 mm, oil content (%), oil type, hilum colour, overseas malting, hot water extract, and seed colour. Examples of % screenings are 2.2 mm and 2.5 mm. Such measures can be used in determining the effect provided by the present invention.
(§3) The TAMPF formulation example in these experiments included AN+AC+ADD, applied at the rate of 1 litre per hectare. ADD=at least one from class (f) each at <3 g/l, plus at least one from class (c).
(§4) Trials information: grown in pots in standard multi-purpose compost of pH 6.5, at 6/7 seeds per 9 cm pot (winter wheat), or 5/6 seeds per 9 cm pot (winter barley). Sprayed at the start of the anthesis growth stage (=shortly after ear emergence: GS60)

[6] = test system: Winter Wheat (Mean of 3 Varieties); test: Grain quality improvement pot trial, winter wheat
Source text: as §2, §3, §4

[7] = sprayed at start of anthesis (GS60)

SMILES	Grain Yield (%) T1 Timing ([1]; T1 (Growth Stage 52)) [%]	Grain Yield (%) T2 Timing ([1]; T2 (Growth Stage 65-69)) [%]	Grain Yield (g per Pot) T1 Timing [1] [g per Pot]	Grain Yield (g per Pot) T2 Timing [1] [g per Pot]	Grain Yield (%) T1 Timing ([2]; T1 (Growth Stage 52)) [%]	Grain Yield (%) T2 Timing ([2]; T2 (Growth Stage 65-69)) [%]	Grain Yield (g per Pot) T1 Timing [2] [g per Pot]	Grain Yield (g per Pot) T2 Timing [2] [g per Pot]	Seed Yield (%) T1 Timing ([3]; T1 (Growth Stage R1)) [%]	Seed Yield (%) T2 Timing ([3]; T2 (Growth Stage R3)) [%]	Seed Yield (g per Pot) T1 Timing [3] [g per Pot]	Seed Yield (g per Pot) T2 Timing [3] [g per Pot]	Seed Yield (%) T1 Timing ([4]; T1 (Growth Stage R1)) [%]	Seed Yield (%) T2 Timing ([4]; T2 (Growth Stage R3)) [%]	Seed Yield (g per Pot) T1 Timing [4] [g per Pot]	Seed Yield (g per Pot) T2 Timing [4] [g per Pot]	also measured
CC(=O)Nc1ccc(O)cc1 [AC, N-(4-hydroxypheyl)acetamide, reference compound]	98.0	103.7	29.3	31.0	102.8	98.8	25.5	24.5	101.8	101.8	33.5	33.5	98.0	99.8	53.3	54.3	–
Nc1ccccc1C(=O)O [AN, anthranilic acid]	99.7	98.7	29.8	29.5	96.8	98.8	24.0	24.5	99.7	101.2	32.8	33.3	102.0	98.0	55.5	53.3	–
O=S(O)(O)=S [Thiosulphate]	108.4	111.7	32.4	33.4	102.8	102.4	25.5	25.4	108.8	110.3	35.8	36.3	108.6	109.9	59.1	59.8	Thousand Grain Weight (g) T1 Timing ([1]; T1 (Growth Stage 52)): 50.4 g; Thousand Grain Weight (g) T2 Timing ([1]; T2 (Growth Stage 65-69)): 50.7 g; % Screenings (2.2 mm) ([5]; sprayed at GS60, 2.2 mm): 4.8%; % Screenings (2.5 mm) ([5]; sprayed at GS60, 2.5 mm): 7.3%; Specific Weight (kg/hl) [5, 7]: 68.3 kg/hl; Thousand Grain Weight (g) T1 Timing ([2]; T1 (Growth Stage 52)): 46.5 g; Thousand Grain Weight (g) T2 Timing ([2]; T2 (Growth Stage 65-69)): 46.4 g; % Screenings (2.2 mm) ([6]; sprayed at GS60, 2.2 mm): 4.5%; % Screenings (2.5 mm) ([6]; sprayed at GS60, 2.5 mm): 8.0%; Specific Weight (kg/hl) [6, 7]: 74.0 kg/hl; Thousand Seed Weight (g) T1 Timing ([3]; T1 (Growth Stage R1)): 160 g; Thousand Seed Weight (g) T2 Timing ([3]; T2 (Growth Stage R3)): 159 g; Indiv Seed Weight (mg) T1 Timing ([4]; T1 (Growth Stage R1)): 276 mg; Indiv Seed Weight (mg) T2 Timing ([4]; T2 (Growth Stage R3)): 275 mg
